Data published in US20070224167A1, “Novel HCV inhibitor combinations and methods” (priority 2006, published 2007).

How the values were obtained:
HCV 1b BB7 replicon = test: Intracellular antiviral activity in HCV replicon, genotype 1b; assay type: cell-based, HCV genotype 1b; conditions: for EC50: Hepatitis C virus, 72 h, read-out: HCV RNA EC50
Method: (§1) HCV genotype 1b, BB7 replicon-containing cell line is derived from a human hepatoma cell line (Huh7). A genotype 1a (H77 isolate; GenBank Accession #AF009606) is derived from replicon-containing cell line (Huh7-1a). The cell lines are cultured at 37° C. and 5% CO2 in Dulbecco's Modified Eagle Media (D-MEM; Invitrogen #11965-084) containing 10% fetal bovine serum (FBS; HyClone #SH300070) supplemented with 1% penicillin/streptomycin (Invitrogen #15140-122), 1% non-essential amino acids (Invitrogen #11140-050), 0.66 mM HEPES buffer, pH 7.55 (Invitrogen #15630-080), and 1 mg/mL G418 (Geneticin®, Invitrogen #11811-031 or #10131-027). Genotype 1a and genotype 1b replicon-containing cell lines contain approximately 1000 and 2000 RNA genome equivalents per cell, respectively, when maintained in a subconfluent monolayer in the presence of 1 mg/mL G418. For compound testing, G418 is eliminated and the FBS concentration is reduced to 2%.
(§2) At the end of the incubation period, the replicon-containing cells are lysed in 150 μL of lysis buffer provided in the RNeasy 96 Kit (Qiagen #74181). Total cellular RNA is extracted according to the manufacturer's protocol and eluted in 150 μL of nuclease-free water. […] For duplexed RT-PCR quantifying both HCV RNA and 18S rRNA, 0.08 μM rRNA forward primer, 0.1 μM rRNA reverse primer, and 0.2 μM rRNA probe are added (ABI #4308329). […]
The amounts of the HCV and 18S ribosomal RNAs in each sample are estimated by comparing the Ct cycles with those in the corresponding standard curves. […] The total RNA that is used for preparing the standard curve of the rRNA is quantified by O.D.260 measurement. Compound dose response is measured in a 10-point, 3-fold serial dilution series performed in triplicates and subjected to the same corresponding RT-PCR conditions as described above. […] The amounts of HCV are expressed as HCV RNA copies and μg total RNA using rRNA as the surrogate marker for the quantification. […]

HCV 1a H77 replicon = test: Intracellular antiviral activity in HCV replicon, genotype 1a; assay type: cell-based, HCV genotype 1a; conditions: Hepatitis C virus, 72 h, read-out: HCV RNA EC50
Method: as §1, with “Genotype 1a and genotype 1b replicon-containing cell lines contain approximately 1000 and 2000 RNA genome equivalents per cell, respectively, when maintained in a subconfluent monolayer in the presence of 1 mg/mL G418. For compound testing, G418 is eliminated and the FBS concentration is reduced to 2%.” left out
as §2, with “#74181).” for “#74181). Total cellular RNA is extracted according to the manufacturer's protocol and eluted in 150 μL of nuclease-free water.”
The amounts of the HCV and 18S ribosomal RNAs in each sample are estimated by comparing the Ct cycles with those in the corresponding standard curves. […] The total RNA that is used for preparing the standard curve of the rRNA is quantified by O.D.260 measurement. Compound dose response is measured in a 10-point, 3-fold serial dilution series performed in triplicates and subjected to the same corresponding RT-PCR conditions as described above. […]

[1] = test system: GAPDH RNA, Huh7 BB7 replicon cells; test: GAPDH RNA in genotype 1b (BB7) replicon cells; assay type: cell-based; conditions: Homo sapiens, Huh-7, 72 h, read-out: GAPDH EC50
Method: as §1
(§3) Genotype 1b (BB7) and 1a (H77) cells are seeded in 96-well plates at a sub-confluent density (7000 cells/well) in medium containing 2% FBS without G418. […] The amounts of HCV, rRNA and GAPDH RNAs are quantified using the TaqMan RT-PCR assay.

[2] = test system: GAPDH RNA, Huh7-1a replicon cells; test: GAPDH RNA in genotype 1a (H77) replicon cells; assay type: cell-based; conditions: Homo sapiens, 72 h, read-out: GAPDH EC50
Method: as §1, §3

SMILES	EC50 (HCV 1b BB7 replicon) [nM]	EC50 (HCV 1a H77 replicon) [nM]	EC50 [1] [nM]	EC50 [2] [nM]	Difference in EC50, changing media daily vs. single dose in 3 days (HCV 1b BB7 replicon; replicon, 3 days)
CNC(=O)c1c(-c2ccc(F)cc2)oc2cc(N(CCO)S(C)(=O)=O)c(C3CC3)cc12 [HCV-796, 5-cyclopropyl-2-(4-fluoro-phenyl)-6-[(2-hydroxy-ethyl)-methanesulfonyl-amino]-benzofuran-3-carboxylic acid methylamide]	1.1 ± 0.2	2.5 ± 1.7	> 2430	> 5600	
CC(C)(C)NC(=O)N[C@H](C(=O)N1C[C@H]2[C@@H]([C@H]1C(=O)NC(CC1CCC1)C(=O)C(N)=O)C2(C)C)C(C)(C)C (stereo partly drawn) [SCH 503034, (1R,5S)—N-[3-amino-1-(cyclobutylmethyl)-2,3-dioxopropyl]-3-[2(S)-[[[(1,1-dimethylethyl)amino]carbonyl]amino]-3,3-dimethyl-1-oxobutyl]-6,6-dimethyl-3-azabicyclo[3.1.0]hexan-2(S)-carboxamide]	268 ± 29	188 ± 18	> 3200	> 3200	No difference in EC50
